# Data from ChEMBL document CHEMBL3046788, “Synthesis and antifungal activity of N-(substituted pyridinyl)-1-methyl(phenyl)-3-(trifluoromethyl)-1H-pyrazole-4-carboxamide derivatives” (Molecules, 2012).
# Assays:
# [1] = test system: Fusarium graminearum; assay: microbe, parasite or virus in culture; assay type: functional; conditions: read-out: GI
# [2] = test system: Cytospora; assay: Antifungal activity against Cytospora mandshurica assessed as inhibition of mycelium growth at 100 ug/ml; assay type: functional; conditions: read-out: GI
# [3] = test system: Fusarium oxysporum; assay: Antifungal activity against Fusarium oxysporum assessed as inhibition of mycelium growth at 100 ug/ml; assay type: functional; conditions: read-out: GI
# [4] = test system: Fusarium oxysporum; assay: Antifungal activity against Fusarium oxysporum assessed as inhibition of mycelium growth; assay type: functional, organism-based
# [5] = test system: Cytospora; assay: Antifungal activity against Cytospora mandshurica assessed as inhibition of mycelium growth; assay type: functional, organism-based
# [6] = test system: Fusarium graminearum; assay: Antifungal activity against Fusarium graminearum assessed as inhibition of mycelium growth; assay type: functional, organism-based
SMILES,inhibition of growth at 100 µg/mL [1] [%],inhibition of growth at 100 µg/mL [2] [%],inhibition of growth at 100 µg/mL [3] [%],EC50 [4] [µg/mL],EC50 [5] [µg/mL],EC50 [6] [µg/mL]
Cn1cc(C(=O)Nc2ccc(C(F)(F)F)cn2)c(C(F)(F)F)n1,51.6,35.6,39.1,–,–,–
Cn1cc(C(=O)Nc2ccc(Br)cn2)c(C(F)(F)F)n1,73.2,48.7,53.5,97.8,132,76.3
Cn1cc(C(=O)Nc2ccnc(Cl)c2)c(C(F)(F)F)n1,60.1,9.1,5.9,–,–,–
Cc1cccc(NC(=O)c2cn(C)nc2C(F)(F)F)n1,34.7,20.8,22.3,–,–,–
Cn1cc(C(=O)Nc2ccccn2)c(C(F)(F)F)n1,40.9,9,19.5,–,–,–
Cn1cc(C(=O)Nc2ccncc2)c(C(F)(F)F)n1,26.3,2.9,11.8,–,–,–
Cc1ccnc(NC(=O)c2cn(C)nc2C(F)(F)F)c1,25.2,1.74,6.9,–,–,–
Cn1cc(C(=O)Nc2ccc(F)cn2)c(C(F)(F)F)n1,30.4,13.6,22.5,–,–,–
Cn1cc(C(=O)Nc2cccnc2Cl)c(C(F)(F)F)n1,40.4,4.9,14.9,–,–,–
Cc1ccc(NC(=O)c2cn(C)nc2C(F)(F)F)nc1,39.3,0,8.3,–,–,–
Cn1cc(C(=O)Nc2ccc(Cl)cn2)c(C(F)(F)F)n1,26,13.6,30.1,–,–,–
Cn1cc(C(=O)Nc2ccnc(Br)c2)c(C(F)(F)F)n1,25.2,6.4,10.9,–,–,–
O=C(Nc1ccncc1)c1cn(-c2ccccc2)nc1C(F)(F)F,11.3,0,7.9,–,–,–
O=C(Nc1ccnc(Cl)c1)c1cn(-c2ccccc2)nc1C(F)(F)F,16.2,0,0,–,–,–
O=C(Nc1ccnc(Br)c1)c1cn(-c2ccccc2)nc1C(F)(F)F,10.7,0,5.7,–,–,–
O=C(Nc1ccccn1)c1cn(-c2ccccc2)nc1C(F)(F)F,35.2,17,23.9,–,–,–
O=C(Nc1ccncc1Br)c1cn(-c2ccccc2)nc1C(F)(F)F,22.6,8.4,27.2,–,–,–
Cc1cnccc1NC(=O)c1cn(-c2ccccc2)nc1C(F)(F)F,6.7,6.1,11.5,–,–,–
Cc1cc(NC(=O)c2cn(-c3ccccc3)nc2C(F)(F)F)ccn1,9.8,0,4.23,–,–,–
O=C(Nc1cccnc1)c1cn(-c2ccccc2)nc1C(F)(F)F,6.1,0,10.6,–,–,–
O=C(Nc1ccc(Cl)cn1)c1cn(-c2ccccc2)nc1C(F)(F)F,16.5,10.1,14.2,–,–,–
Cc1ccc(NC(=O)c2cn(-c3ccccc3)nc2C(F)(F)F)nc1,6.4,0,20.5,–,–,–
O=C(Nc1ccccc1-c1ccc(Cl)cc1)c1cccnc1Cl [BOSCALID],35.9,3.4,4.3,–,–,–
CC1=C(C(=O)Nc2ccccc2)SCCO1 [CARBOXIN],56.3,–,23.6,–,–,–
